This note sets out measurements from patent publication US10143771B2, “Antioxidant and antimicrobial wound dressing materials” (KCI USA, Inc., priority 2003, dated 2018).

Assay [1] concerns Staphylococcus aureus. The assay can be described thus: Zone of inhibition test, Procedure 2. In kind it is cell-based. Conditions: Staphylococcus aureus on DSA plates, 37° C., over the test period (every 24 hours for 72 hours). The protocol:
(§1) Six 2 cm×2 cm squares of each sample are cut out in sterile conditions. On day one of the experiment, cultures of both Pseudomonas aeruginosa (ATCC 27853 and various PSI strains) and Staphylococcus aureus (provided by the Dept of Clinical Microbiology and Pathology) are incubated aerobically at 37° C. for 24 hours on Diagnostic Sensitivity Agar (DSA). After 24 hours test samples are each placed on a DSA plate and immediately wetted with 0.5 mls of a buffer solution. Three squares of sample are placed on plates inoculated with Pseudomonas aeruginosa and three are placed on plates inoculated with Staphylococcus aureus. The plates are then incubated at 37° C. for 24 hours. The zone of inhibited growth around the sample is then measured using calipers, and the test sample is placed on a new inoculated DSA plate. A swab test is carried out on the area beneath the sample to determine if the sample is bacteriostatic if not bactericidal by smearing the swab on a DSA plate and incubating it for 24 hours and then examining the growth.

The subject of assay [2] is Pseudomonas aeruginosa (ATCC 27853 and various PSI strains). Kind of assay: Zone of inhibition test, Procedure 2. In kind it is cell-based. As to conditions: Pseudomonas aeruginosa on DSA plates, 37° C., over the test period (every 24 hours for 72 hours). The protocol:
as §1

On to `O=[N+]([O-])[O-].[Ag+]` [silver nitrate solution (0.5%), silver nitrate], for which the zone of inhibition entry in assay [1] and in assay [2] was “zones of inhibition were observed” in each case.
